Test results as given in BindingDB's records for doi:10.1021/jm00154a024 (1986).

Assay: The compound was tested for the inhibition of alanine racemase from Pseudomonas aeruginosa

Question: Which Ki does the source give for CCC(=N)P(=O)(O)O here?
Answer: The Ki was 8.5 mM.
